The source of these data is paper PMC9975351 (Frontiers in Pharmacology, 2023).

Series [1] is described as follows: Metabolic stability and metabolite formation in pooled human liver microsomes with NADPH and/or UDPGA. In kind it is in vitro ADME. To be noted: human, microsomes, pH 7.4, Half-life. As for the experimental part: Microsomal incubation was conducted in triplicate using 0.1 M potassium phosphate buffer (PPB, pH 7.4) in eight-well tube strips in an 8 × 12 rack (1.2 mL; VWR, Emeryville, CA, United States). […] The mixture was pre-incubated at 37°C with shaking at approximately 100 rpm for 5 min. UGT glucuronidation was performed with HLMs (1 mg/mL) and alamethicin (25 μg/mg microsomal protein) in a 100-mM PPB (pH 7.4) solution on ice for 15 min. […] CYP, UGT, and combined reactions were initiated by addition of the NADPH regenerating system, UDPGA (1 mM), and both, respectively. […] The incubation mixtures were then centrifuged at 2,000 × g and 4°C for 20 min, and the supernatants were analyzed by LC-QTOF HRMS.
The incubation mixtures were pre-incubated at 37°C in a shaking water bath at approximately 100 rpm for 5 min. Reactions were initiated by the addition of an NADPH-regenerating system. The reaction was terminated, centrifuged then analyzed using the same method described above.
(§1) In the microsomal stability analysis, degradation half-life (t½) values were calculated using the following equation: t½=0.693/k where k is the first-order degradation rate constant, estimated by one-phase exponential-decay non-linear regression of the degradation time-course data using Graph Pad Prism 8.0 (Graph Pad Software Inc., San Diego, CA, United States). In vitro metabolic stability parameters, microsomal intrinsic clearance (CLint,mic), apparent intrinsic clearance (CL′int), and hepatic clearance (CLh), were calculated according to the well-stirred model approach ([Pang and Rowland, 1977]; [Baranczewski et al., 2006]). The apparent kinetic parameters of GRL0617 metabolism were determined by fitting a one-enzyme Michaelis-Menten equation. […] All data are presented as mean ± SD. Data were compared between groups using the unpaired Student’s t-test. The significance level was set at p < 0.05, unless indicated otherwise.
(Liver microsomes are a subcellular fraction often used to study metabolism.)

Series [2] is classed as physicochemical. To be noted: human, microsomes, 3 h. As for the experimental part: (§2) All other generated metabolites area was less than 1% of the parent area/internal standard area. […] HY-17542 underwent deacetylation rapidly in HLM incubated with or without NADPH (Figures 4A, B). The calculated half-lives for NADPH-dependent metabolism and NADPH-independent degradation were 5.26 and 10.83 min, respectively. We incubated HY-17542 without HLM and NADPH to 180 min in the phosphate buffer condition. […] CES 1 or 2 was possible enzyme responsible for the deacetylation. […] HY-17542 metabolites in HLM incubated with NADPH are presented in Figures 4C, D. M1 and M3 were also detected from HY-17542 in a time-dependent manner.

For another series, the target named is T1, CES1 (Homo sapiens, UniProt P23141).
T1 construct: purchased Cypex (Dundee, UK)
T1 sequence (P23141 18-567): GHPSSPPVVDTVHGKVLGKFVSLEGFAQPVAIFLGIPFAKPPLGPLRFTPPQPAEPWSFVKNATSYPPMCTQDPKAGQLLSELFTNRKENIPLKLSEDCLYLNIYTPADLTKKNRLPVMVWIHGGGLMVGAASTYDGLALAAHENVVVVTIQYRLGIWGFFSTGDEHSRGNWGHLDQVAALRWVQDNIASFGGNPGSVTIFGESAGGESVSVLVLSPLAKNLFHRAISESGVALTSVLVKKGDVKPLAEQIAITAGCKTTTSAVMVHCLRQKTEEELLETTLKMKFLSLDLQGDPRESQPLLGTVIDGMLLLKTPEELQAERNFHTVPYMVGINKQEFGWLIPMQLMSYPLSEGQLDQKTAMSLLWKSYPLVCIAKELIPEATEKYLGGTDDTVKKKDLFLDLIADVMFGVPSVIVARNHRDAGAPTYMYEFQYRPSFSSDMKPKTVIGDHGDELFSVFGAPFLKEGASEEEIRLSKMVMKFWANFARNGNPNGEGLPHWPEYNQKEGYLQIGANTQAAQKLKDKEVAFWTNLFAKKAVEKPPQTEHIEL
Put plainly: Incubation with recombinant CES1. To be noted: 1 µM. In kind it is in vitro ADME. As for the experimental part:
as §2
(§3) FIGURE 4 Metabolic stability of HY-17542 in HLMs. (A) 1 µM of HY-17542 was incubated with HLMs in the presence or absence of NADPH and incubated with recombinant CES 1 or CES2. […] (C) Formation of M1 in the incubation of 1 µM of HY-17542 in HLMs with NADPH. (D) Formation of M3 in the incubation of 1 µM of HY-17542 in HLMs with NADPH. Data are presented as mean ± SD from three independent samples (n = 3). (E) Representative chromatogram of GRL0617 and its metabolites in the presence of a NADPH-generating system from QTOF MS analysis.

A further series concerns the target T2, CES2 (Homo sapiens, UniProt O00748).
T2 construct: purchased Cypex (Dundee, UK)
T2 sequence (O00748 27-559): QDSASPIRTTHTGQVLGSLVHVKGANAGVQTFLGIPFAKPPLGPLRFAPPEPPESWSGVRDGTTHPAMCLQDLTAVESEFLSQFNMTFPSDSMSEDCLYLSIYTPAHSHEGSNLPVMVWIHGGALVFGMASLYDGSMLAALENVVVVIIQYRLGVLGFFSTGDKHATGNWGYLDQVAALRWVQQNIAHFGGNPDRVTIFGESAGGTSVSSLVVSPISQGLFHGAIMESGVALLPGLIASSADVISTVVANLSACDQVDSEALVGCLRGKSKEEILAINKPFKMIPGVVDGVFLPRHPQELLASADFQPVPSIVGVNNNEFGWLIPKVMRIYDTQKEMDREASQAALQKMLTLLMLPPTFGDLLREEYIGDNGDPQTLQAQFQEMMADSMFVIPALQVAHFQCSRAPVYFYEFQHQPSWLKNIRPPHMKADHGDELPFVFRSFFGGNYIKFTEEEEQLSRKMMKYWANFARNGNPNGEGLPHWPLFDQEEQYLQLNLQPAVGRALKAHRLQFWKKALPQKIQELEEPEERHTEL
Put plainly: Incubation with recombinant CES2. In kind it is in vitro ADME. To be noted: 1 µM. As for the experimental part:
as §2, §3

Substrate in series [3]: Cc1ccc(N)cc1C(=O)N[C@H](C)c1cccc2ccccc12
Briefly: not read. To be noted: other: M1 formation, recombinant CYP2D6, 10 min; 95% CI in parentheses; pH 7.4; 37.0 °C.

Substrate in series [4]: Cc1ccc(N)cc1C(=O)N[C@H](C)c1cccc2ccccc12
Briefly: not read. In kind it is in vitro ADME, human. To be noted: other: M1 formation, recombinant CYP3A5, 10 min; 95% CI in parentheses; pH 7.4; 37.0 °C. The method, then:
Reactions were conducted in triplicate using 0.1 M PPB (pH 7.4) in eight-well tube strips in an 8 × 12 rack. […] The mixture was pre-incubated at 37°C with shaking at approximately 100 rpm for 5 min. Reactions were initiated by the addition of the NADPH-regenerating system and quenched with 200 µL ice-cold acetonitrile containing 50 nM CBZ. The samples were centrifuged at 1,000 × g and 4°C for 20 min, and the supernatants were subjected to LC-QTOF HRMS. […] The reaction was incubated, initiated, terminated, centrifuged then analyzed using the same method described above.
as §1, with “Data were compared between groups using the unpaired Student’s t-test. The significance level was set at p < 0.05, unless indicated otherwise.” left out

Turning to `CC(=O)Nc1ccc(C)c(C(=O)N[C@H](C)c2cccc3ccccc23)c1` [HY-17542, 5-[acetylamino]-2-methyl-N-[(1R)-1-(1-naphthalenyl)ethyl]benzamide], the half-life at 1 µM came out at 5.26 min in series [1] and 10.8 min in series [1] (NADPH-independent degradation). The same molecule showed a Remaining compound in series [2] of 99.89 ± 7.69%. On CES1, the “Effect on HY-17542 concentration” value is given as “did not affect HY-17542 concentration”. In addition, the HY-17542 concentration remaining on CES2 is listed as 88.01 ± 10.5%.

B1: CYP2D6 (Homo sapiens) (protein)
chain: MGLEALVPLAVIVAIFLLLVDLMHRRQRWAARYPPGPLPLPGLGNLLHVDFQNTPYCFDQLRRRFGDVFSLQLAWTPVVVLNGLAAVREALVTHGEDTADRPPVPITQILGFGPRSQGVFLARYGPAWREQRRFSVSTLRNLGLGKKSLEQWVTEEAACLCAAFANHSGRPFRPNGLLDKAVSNVIASLTCGRRFEYDDPRFLRLLDLAQEGLKEESGFLREVLNAVPVLLHIPALAGKVLRFQKAFLTQLDELLTEHRMTWDPAQPPRDLTEAFLAEMEKAKGNPESSFNDENLRIVVADLFSAGMVTTSTTLAWGLLLMILHPDVQRRVQQEIDDVIGQVRRPEMGDQAHMPYTTAVIHEVQRFGDIVPLGVTHMTSRDIEVQGFRIPKGTTLITNLSSVLKDEAVWEKPFRFHPEHFLDAQGHFVKPEAFLPFSAGRRACLGEPLARMELFLFFTSLLQHFSFSVPTGQPRPSHHGVFAFLVSPSPYELCAVPR
As to B1, the Km in the series “not read [3]” is given as 85.1 (69.4–107.8) µM.

B2: CYP3A5 (Homo sapiens) (protein)
chain: MDLIPNLAVETWLLLAVSLVLLYLYGTRTHGLFKRLGIPGPTPLPLLGNVLSYRQGLWKFDTECYKKYGKMWGTYEGQLPVLAITDPDVIRTVLVKECYSVFTNRRSLGPVGFMKSAISLAEDEEWKRIRSLLSPTFTSGKLKEMFPIIAQYGDVLVRNLRREAEKGKPVTLKDIFGAYSMDVITGTSFGVNIDSLNNPQDPFVESTKKFLKFGFLDPLFLSIILFPFLTPVFEALNVSLFPKDTINFLSKSVNRMKKSRLNDKQKHRLDFLQLMIDSQNSKETESHKALSDLELAAQSIIFIFAGYETTSSVLSFTLYELATHPDVQQKLQKEIDAVLPNKAPPTYDAVVQMEYLDMVVNETLRLFPVAIRLERTCKKDVEINGVFIPKGSMVVIPTYALHHDPKYWTEPEEFRPERFSKKKDSIDPYIYTPFGTGPRNCIGMRFALMNMKLALIRVLQNFSFKPCKETQIPLKLDTQGLLQPEKPIVLKVDSRDGTLSGE
notes: purchased Cypex (Dundee, UK); host or cells: bactosomes (bacterial membranes)
As to B2, the Km in “not read [4]” was 8.5 (7.6–9.5) µM.
